These results are taken from ChEMBL document CHEMBL4184144, “Design, synthesis and biological evaluation of fucose-truncated monosaccharide analogues of ipomoeassin F” (Bioorg Med Chem Lett, 2017).

Common to all, as to assay type: functional, cell-based
Test [1] has as its system MCF7. The experiment in a line: Antiproliferative activity against human MCF7 cells at 10 uM after 72 hrs by MTT assay. (In general: Tetrazolium assays rely on reduction of a dye to a coloured formazan, in cell work by metabolically active cells.)
The test system of test [2] is MDA-MB-231. The experiment in a line: Antiproliferative activity against human MDA-MB-231 cells at 10 uM after 72 hrs by alamarBlue assay.
Test [3] has as its system MCF7. The test is described as follows: Antiproliferative activity against human MCF7 cells after 72 hrs by MTT assay. The following applies: MCF7, 72 h.
In test [4] the test system is MDA-MB-231. The experiment in a line: Antiproliferative activity against human MDA-MB-231 cells after 72 hrs by alamarBlue assay. The following applies: MDA-MB-231, 72 h. Background: Resazurin is reduced to fluorescent resorufin, in cell work by metabolically active cells.
The next test concerns HeLa. The test is described as follows: Antiproliferative activity against human HeLa cells.
In the next test the test system is U-937. The test is described as follows: Antiproliferative activity against human U937 cells.
The test system of the next test is Jurkat. The test is described as follows: Antiproliferative activity against human Jurkat cells.

Active and inactive are the calls of the source. The rule behind the calls is not given here.

For the compound `C/C=C(\C)C(=O)O[C@H]1[C@@H]2O[C@@H](CCCCC)CCCCCCC(=O)CCC(=O)OC[C@@H](O2)[C@@H](O)[C@@H]1OC(=O)/C=C/c1ccccc1`, the outcome in the test with MCF7 [1] and with MDA-MB-231 [2] was inactive.

As usually defined, the IC50 is the concentration at which inhibition is half-maximal. Read a high IC50 as lower potency. As for `C/C=C(\C)C(=O)O[C@@H]1[C@@H](O)[C@@H]2O[C@H]3[C@H](O[C@@H](CCCCC)CCCCCCC(=O)CCC(=O)OC[C@@H](O2)[C@H]1OC(=O)/C=C/c1ccccc1)O[C@H](C)[C@H](O)[C@@H]3O`, the IC50 in the test on MCF7 [3] was determined as 86.7 nM; with MDA-MB-231 [4], 131 nM; in the test on HeLa, 133 nM; with U-937 it was 72.5 nM; in the test with Jurkat, 139 nM.

In the case of `C/C=C(\C)C(=O)O[C@@H]1[C@@H](O)[C@@H]2O[C@H]3[C@H](O[C@@H](CCCCC)CCCCCCC(=O)CCC(=O)OC[C@@H](O2)[C@H]1OC(=O)/C=C/c1ccccc1)O[C@H](C)[C@H](OC(C)=O)[C@@H]3OC(C)=O`, the IC50 in the test with MCF7 [3] is 216 nM; in the test on MDA-MB-231 [4], 16.5 nM; with HeLa, 138 nM; in the test with U-937 it was 79.8 nM; in the test on Jurkat, 82.6 nM.

For `C/C=C(\C)C(=O)O[C@@H]1[C@@H](O)[C@@H]2O[C@H]3[C@H](O[C@@H](CCCCC)CCCCCCC(=O)CCC(=O)OC[C@@H](O2)[C@H]1OC(=O)/C=C/c1ccccc1)O[C@H](C)[C@H](OC(C)=O)[C@@H]3O`, the IC50 in the test on MCF7 [3] amounted to 43.7 nM; with MDA-MB-231 [4], 6.5 nM; in the test with HeLa, 16.4 nM; in the test with U-937 it was 5.4 nM; in the test with Jurkat, 6.1 nM. Also, the outcome in the test with MCF7 [1] and in the test on MDA-MB-231 [2] was Active.

With `C/C=C(\C)C(=O)O[C@@H]1[C@@H](O)[C@@H]2O[C@@H](CCCCC)CCCCCCC(=O)CCC(=O)OC[C@@H](O2)[C@H]1OC(=O)/C=C/c1ccccc1`, the result in the test with MCF7 [1] and in the test on MDA-MB-231 [2] was inactive.

Take `C/C=C(\C)C(=O)O[C@@H]1[C@@H](O)[C@@H]2OCCO[C@@H](CCCCC)CCCCCCC(=O)CCC(=O)OC[C@@H](O2)[C@H]1OC(=O)/C=C/c1ccccc1`: the result with MCF7 [1] and in the test on MDA-MB-231 [2] was inactive.
